From ChEMBL document CHEMBL1134917, “Substituted 4-anilino-7-phenyl-3-quinolinecarbonitriles as Src kinase inhibitors” (Bioorg Med Chem Lett, 2002) come the findings set out here.

The nature of test [1]: Inhibitory concentration required for the Src dependent cell proliferation using Src-transformed fibroblasts.
Test [2] concerns the target Proto-oncogene tyrosine-protein kinase Src (Homo sapiens, UniProt P12931). The test can be described thus: Inhibitory concentration against Src protein tyrosine kinase.
Test [3] addresses Dual specificity mitogen-activated protein kinase kinase 1 (Homo sapiens, UniProt Q02750). The test can be described thus: Inhibition of Dual specificity mitogen-activated protein kinase kinase, MEK.
Test [4] deals with Cyclin-dependent kinase 4 (Homo sapiens) (UniProt P11802). The test can be described thus: Inhibition of Cyclin-dependent kinase 4 (CDK4) at ug/mL. Particulars: concentration not given here.
Chain of Cyclin-dependent kinase 4 (Homo sapiens) (P11802 whole entry): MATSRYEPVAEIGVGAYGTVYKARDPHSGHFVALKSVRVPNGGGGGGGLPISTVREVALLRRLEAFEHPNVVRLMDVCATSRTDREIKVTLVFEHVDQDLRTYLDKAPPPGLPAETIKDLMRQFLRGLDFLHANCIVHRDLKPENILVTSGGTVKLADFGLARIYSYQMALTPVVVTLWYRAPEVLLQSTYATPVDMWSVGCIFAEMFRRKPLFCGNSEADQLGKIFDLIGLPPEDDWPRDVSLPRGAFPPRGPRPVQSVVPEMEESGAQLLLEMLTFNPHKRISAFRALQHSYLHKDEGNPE
Test [5] addresses Epidermal growth factor receptor (Homo sapiens, UniProt P00533). The test can be described thus: Inhibition of Epidermal growth factor receptor.

Each structure is given as a SMILES string.

Chain of Proto-oncogene tyrosine-protein kinase Src (P12931 2-536 limits assumed): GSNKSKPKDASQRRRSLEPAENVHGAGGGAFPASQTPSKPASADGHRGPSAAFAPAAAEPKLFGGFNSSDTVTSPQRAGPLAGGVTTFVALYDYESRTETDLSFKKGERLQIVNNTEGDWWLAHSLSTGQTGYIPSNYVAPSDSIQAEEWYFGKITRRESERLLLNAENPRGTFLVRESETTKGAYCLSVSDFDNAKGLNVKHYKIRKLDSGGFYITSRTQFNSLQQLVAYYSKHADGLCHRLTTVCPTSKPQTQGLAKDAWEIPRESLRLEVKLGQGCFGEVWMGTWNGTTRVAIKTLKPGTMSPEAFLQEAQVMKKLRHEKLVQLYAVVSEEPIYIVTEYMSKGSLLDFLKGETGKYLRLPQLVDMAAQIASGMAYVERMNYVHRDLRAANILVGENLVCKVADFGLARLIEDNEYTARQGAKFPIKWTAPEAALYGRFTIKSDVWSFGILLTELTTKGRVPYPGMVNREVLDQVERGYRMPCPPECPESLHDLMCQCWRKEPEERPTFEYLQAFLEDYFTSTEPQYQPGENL
Chain of Epidermal growth factor receptor (P00533 whole entry): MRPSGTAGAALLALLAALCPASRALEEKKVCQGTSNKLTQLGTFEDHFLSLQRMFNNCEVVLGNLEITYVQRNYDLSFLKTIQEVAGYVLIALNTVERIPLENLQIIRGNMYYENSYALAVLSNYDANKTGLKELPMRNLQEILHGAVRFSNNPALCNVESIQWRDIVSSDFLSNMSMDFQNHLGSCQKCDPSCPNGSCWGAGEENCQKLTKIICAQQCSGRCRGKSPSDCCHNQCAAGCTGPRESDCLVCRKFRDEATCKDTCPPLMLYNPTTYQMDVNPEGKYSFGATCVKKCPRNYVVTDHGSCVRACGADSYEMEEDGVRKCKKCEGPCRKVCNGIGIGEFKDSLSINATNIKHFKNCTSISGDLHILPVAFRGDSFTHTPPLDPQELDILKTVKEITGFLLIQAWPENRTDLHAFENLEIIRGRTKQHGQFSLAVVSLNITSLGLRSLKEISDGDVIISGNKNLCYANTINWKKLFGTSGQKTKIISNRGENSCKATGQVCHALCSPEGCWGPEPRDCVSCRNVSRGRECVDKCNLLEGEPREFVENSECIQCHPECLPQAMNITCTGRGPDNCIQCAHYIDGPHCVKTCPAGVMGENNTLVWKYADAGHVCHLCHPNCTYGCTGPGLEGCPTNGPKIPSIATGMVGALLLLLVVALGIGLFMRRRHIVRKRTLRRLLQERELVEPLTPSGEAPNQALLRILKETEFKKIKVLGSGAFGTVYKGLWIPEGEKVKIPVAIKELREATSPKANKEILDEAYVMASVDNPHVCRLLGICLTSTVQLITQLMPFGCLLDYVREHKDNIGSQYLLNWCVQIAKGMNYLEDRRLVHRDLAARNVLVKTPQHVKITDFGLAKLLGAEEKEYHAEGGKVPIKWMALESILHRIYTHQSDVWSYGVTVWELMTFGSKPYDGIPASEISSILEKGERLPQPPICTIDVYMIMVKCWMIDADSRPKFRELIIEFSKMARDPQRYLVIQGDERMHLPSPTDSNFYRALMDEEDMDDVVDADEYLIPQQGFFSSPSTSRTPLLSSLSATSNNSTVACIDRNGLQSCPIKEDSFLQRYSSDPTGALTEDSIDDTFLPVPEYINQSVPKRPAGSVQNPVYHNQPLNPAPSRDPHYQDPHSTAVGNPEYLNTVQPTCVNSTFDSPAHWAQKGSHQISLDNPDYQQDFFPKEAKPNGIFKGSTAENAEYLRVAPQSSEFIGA
Chain of Dual specificity mitogen-activated protein kinase kinase 1 (Q02750 whole entry): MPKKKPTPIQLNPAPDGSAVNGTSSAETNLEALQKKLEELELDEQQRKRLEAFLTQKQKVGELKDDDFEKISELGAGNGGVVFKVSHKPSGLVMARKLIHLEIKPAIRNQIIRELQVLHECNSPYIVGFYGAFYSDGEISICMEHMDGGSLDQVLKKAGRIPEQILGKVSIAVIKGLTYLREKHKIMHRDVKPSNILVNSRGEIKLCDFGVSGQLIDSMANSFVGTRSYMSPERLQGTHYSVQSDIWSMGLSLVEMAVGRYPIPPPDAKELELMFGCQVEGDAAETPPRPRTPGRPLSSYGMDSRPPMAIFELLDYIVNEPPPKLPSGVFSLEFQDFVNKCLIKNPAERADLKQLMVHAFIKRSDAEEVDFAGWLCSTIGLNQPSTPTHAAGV

`COc1cc(Nc2c(C#N)cnc3cc(-c4cccc(CN5CCN(C)CC5)c4)ccc23)c(Cl)cc1Cl`: the IC50 – broadly, the midpoint of a concentration-inhibition curve – worked out at 2.8 µM in test [1] and 0.014 µM in test [2].

Turning to `COc1cc(Nc2c(C#N)cnc3cc(-c4ccc(CN5CCOCC5)cc4)ccc23)c(Cl)cc1Cl`, the IC50 in test [1] came out at 0.52 µM; in test [3] it was 0.28 µM; in test [2] it was 0.0033 µM; in test [5] it was 3 µM. Moreover, in test [4], the inhibition (in general, the share of the control response that was lost under treatment) was determined as 10%.

With `COc1cc(Nc2c(C#N)cnc3cc(-c4ccc(CN5CCOCC5)cc4)c(OC)cc23)c(Cl)cc1Cl`, the results for the IC50 in test [1] and in test [2] were 1.5 µM and 0.015 µM, respectively.

Consider `COc1cc(Nc2c(C#N)cnc3cc(-c4ccc(CCN5CCOCC5)cc4)c(OC)cc23)c(Cl)cc1Cl`, for which the IC50 in test [1] turned out to be 1.3 µM; in test [2], 0.011 µM.

Consider `COc1cc(Nc2c(C#N)cnc3cc(-c4cccc(CCN5CCOCC5)c4)ccc23)c(Cl)cc1Cl`, for which the IC50 in test [1] is 3.2 µM; in test [2], 0.029 µM.

Regarding `COc1cc(Nc2c(C#N)cnc3cc(-c4ccc(CCN5CCOCC5)cc4)ccc23)c(Cl)cc1Cl`, the results for the IC50 in test [1] and in test [2] were 1 µM and 0.014 µM, respectively.

`CCN1CCN(Cc2ccc(-c3ccc4c(Nc5cc(OC)c(Cl)cc5Cl)c(C#N)cnc4c3)cc2)CC1`: the IC50 came to 0.96 µM in test [1] and 0.003 µM in test [2].

Regarding `CCN1CCN(Cc2ccc(-c3cc4ncc(C#N)c(Nc5cc(OC)c(Cl)cc5Cl)c4cc3OC)cc2)CC1`, the IC50 in test [1] is 2 µM; in test [2], 0.007 µM.

With `COc1cc(Nc2c(C#N)cnc3cc(-c4ccc(CN5CCN(CCO)CC5)cc4)ccc23)c(Cl)cc1Cl`, the IC50 stood at 0.071 µM in test [1] and 0.0047 µM in test [2].

With `COc1cc(Nc2c(C#N)cnc3cc(-c4cccc(CN5CCOCC5)c4)c(OC)cc23)c(Cl)cc1Cl`, the results for the IC50 in test [1] and in test [2] were 8.1 µM and 0.15 µM, respectively.

As to `COc1cc(Nc2c(C#N)cnc3cc(-c4cccc(CCN5CCOCC5)c4)c(OC)cc23)c(Cl)cc1Cl`, the values for the IC50 in test [1] and in test [2] were 12 µM and 0.074 µM, respectively.

With `COc1cc(Nc2c(C#N)cnc3cc(-c4ccccc4CN4CCOCC4)ccc23)c(Cl)cc1Cl`, the IC50 is above 10 µM in test [1] and 4 µM in test [2].

In test [1], `COc1cc(Nc2c(C#N)cnc3cc(OCCCN4CCN(C)CC4)c(OC)cc23)c(Cl)cc1Cl` [BOSUTINIB] displayed an IC50 of 0.1 µM. That is a sub-micromolar value.

In the case of `CCN1CCN(CCc2ccc(-c3ccc4c(Nc5cc(OC)c(Cl)cc5Cl)c(C#N)cnc4c3)cc2)CC1`, the IC50 in test [1] is 1.9 µM; in test [2], 0.0037 µM.

For the compound `COc1cc(Nc2c(C#N)cnc3cc(-c4cccc(CN5CCOCC5)c4)ccc23)c(Cl)cc1Cl`, the IC50 in test [1] came out at 3.9 µM; in test [2] it was 0.028 µM.
